Patent US20190211020A1 (Agency for Science, Technology and Research, priority 2012, published 2019)
Where a name gives a salt, the structure may show the parent alone.

System: eIF4E Ser209 phosphorylation in Hela cells
Test: MNK cell-based assay (AlphaScreen SureFire, eIF4E Ser209 phosphorylation)
Settings: Homo sapiens, HeLa, 2 h, read-out: IC50 Hela
From the text: It has been reported that Ser209 of eIF4E is solely phosphorylated by the MNK enzymes. The ability of compounds to inhibit this process in Hela cells was investigated using the AlphaScreen SureFire® assay platform from Perkin Elmer (Waltham, Mass.). eIF4E phosphorylated on Ser209 is recognized by two antibodies, the first which is fused to a streptavidin coated donor bead binds to an epitope away from Ser209, the second which is fused to a protein A conjugated acceptor bead binds to phosphorylated Ser209. The phosphorylation of eIF4E on Ser209 brings the two antibodies into close proximity and when excited by a laser a singlet oxygen is released by the donor bead which excites the acceptor bead resulting in the emission of light. This enables the monitoring of eIF4E Ser209 phosphorylation and its inhibition in a cellular context.
Hela cells were seeded into microtitre plates (30,000 cells per well) in 100 μl of culture medium and incubated at 37° C. for 24 hours. The media was then removed by aspiration and the cells resuspended in 50 μl of serum free medium containing the test compound and incubated at 37° C. for 2 hours. The culture medium was again removed by aspiration and the cells resuspended in lysis buffer (provided in Perkin Elmer SureFire® Assay Kit). After agitation at 350 rpm for 20 minutes at 22° C., 4 μl was transferred to a 384 well OptiPlate™ (Perkin Elmer, Waltham, Mass.). To each well was added 5 μl of acceptor mix; the plate was sealed and agitated gently at 22° C. for 2 hours. Then, in subdued light, 2 μl of donor mix was added to each well, the plate was sealed, wrapped in aluminum foil and agitated gently at 22° C. for 2 hours. Emission was measured using the EnVision® plate reader (Perkin Elmer, Waltham, Mass.).
Inhibition constants (IC50) were determined by plotting AlphaScreen signal versus log compound concentration and fitting with a non-linear regression algorithm using GraphPad Prism (GraphPad Software Inc.).

**Q.** With `O=C1CCN(C(=O)c2ccc(-c3cn4c(-c5ccc(Cl)cc5)cnc4cn3)cc2)CC1` [Example 43, 1-(4-(3-(4-chlorophenyl)imidazo[1,2-a]pyrazin-6-yl)benzoyl)piperidin-4-one] as the compound, how does the IC50 read?
**A.** < 1 µM

Same assay, conditions: Homo sapiens; eIF4E Ser209 phosphorylation, Hela cells, 2 hours; read-out: IC50 Hela

**Q.** `CC1(N)CCN(C(=O)c2ccc(-c3cn4c(-c5ccc(C#N)cc5)cnc4cn3)cc2F)CC1` [Example 30, 4-(6-(4-(4-amino-4-methylpiperidine-1-carbonyl)-3-fluorophenyl)imidazo[1,2-a]pyrazin-3-yl)benzonitrile] was tested. Which IC50 did it give?
**A.** < 1 µM

**Q.** Which IC50 does the source give for `N#Cc1ccc(-c2cnc3cnc(-c4ccc(C(=O)N5CCC(N)CC5)c(Cl)c4)cn23)cc1` [Example 31, 4-(6-(4-(4-aminopiperidine-1-carbonyl)-3-chlorophenyl)imidazo[1,2-a]pyrazin-3-yl)benzonitrile] here?
**A.** < 1 µM

**Q.** How did the IC50 turn out when `CC1(N)CCN(C(=O)c2ccc(-c3cn4c(-c5ccc(C#N)cc5)cnc4cn3)cc2Cl)CC1` [Example 32, 4-(6-(4-(4-amino-4-methylpiperidine-1-carbonyl)-3-chlorophenyl)imidazo[1,2-a]pyrazin-3-yl)benzonitrile] was run?
**A.** < 1 µM

**Q.** `CN1CCN(C(=O)c2ccc(-c3cn4c(-c5ccc(C#N)cc5)cnc4cn3)c(O)c2)CC1` [Example 38, 4-(6-(2-hydroxy-4-(4-methylpiperazine-1-carbonyl)phenyl)imidazo [1,2-a]pyrazin-3-yl)benzonitrile] was tested. Which IC50 did it give?
**A.** < 1 µM

**Q.** How did the IC50 turn out when `COc1cc(-c2cn3c(-c4ccc(C#N)cc4)cnc3cn2)ccc1C(=O)N1CCN(C)CC1` [Example 39, 4-(6-(3-methoxy-4-(4-methylpiperazine-1-carbonyl)phenyl)imidazo[1,2-a]pyrazin-3-yl)benzonitrile] was run?
**A.** < 1 µM

**Q.** `CN1CCN(C(=O)c2ccc(-c3cn4c(-c5ccc(Cl)cc5)cnc4cn3)cc2)CC1` [Example 41, (4-(3-(4-chlorophenyl)imidazo [1,2-a]pyrazin-6-yl)phenyl)(4-methylpiperazin-1-yl)methanone] was tested. Which IC50 did it give?
**A.** < 1 µM

**Q.** Which IC50 does the source give for `NC(=O)c1ccc(-c2cn3c(-c4ccc(Cl)cc4)cnc3cn2)cc1` [Example 42, 4-(3-(4-chlorophenyl)imidazo[1,2-a]pyrazin-6-yl)benzamide] here?
**A.** < 1 µM

**Q.** How did the IC50 turn out when `CCN1CCN(C(=O)c2ccc(-c3cn4c(-c5ccc(Cl)cc5)cnc4cn3)cc2)CC1` [Example 45, (4-(3-(4-chlorophenyl)imidazo [1,2-a]pyrazin-6-yl)phenyl)(4-ethylpiperazin-1-yl)methanone] was run?
**A.** < 1 µM

**Q.** How did the IC50 turn out when `O=C(c1ccc(-c2cn3c(-c4ccc(Cl)cc4)cnc3cn2)cc1)N1CCNCC1` [Example 46, (4-(3-(4-chlorophenyl)imidazo[1,2-a]pyrazin-6-yl)phenyl)(piperazin-1-yl)methanone 2,2,2-trifluoroacetate salt] was run?
**A.** < 1 µM

**Q.** For `O=C(c1ccc(-c2cn3c(-c4ccc(Cl)cc4)cnc3cn2)cc1)N1CCC(NC(=O)C(F)(F)F)CC1` [Example 48, N-(1-(4-(3-(4-chlorophenyl)imidazo [1,2-a]pyrazin-6-yl)benzoyl)piperidin-4-yl)-2,2,2-trifluoroacetamide], which IC50 is on record?
**A.** < 1 µM

**Q.** With `N#Cc1ccc(-c2cnc3ccc(-c4ccc(C(=O)N5CCC(O)CC5)cc4)nn23)cc1` [Example 55, 4-(6-(4-(4-hydroxypiperidine-1-carbonyl)phenyl)imidazo [1,2-b]pyridazin-3-yl)benzonitrile] as the compound, how does the IC50 read?
**A.** < 1 µM

**Q.** Which IC50 does the source give for `N#Cc1ccc(-c2cnc3ccc(-c4ccc(C(=O)N5CCC(N)CC5)cc4)nn23)cc1` [Example 56, 4-(6-(4-(4-aminopiperidine-1-carbonyl)phenyl)imidazo[1,2-b]pyridazin-3-yl)benzonitrile] here?
**A.** < 1 µM

**Q.** For `CC(=O)NC1CCN(C(=O)c2ccc(-c3ccc4ncc(-c5ccc(C#N)cc5)n4n3)cc2)CC1` [Example 57, N-(1-(4-(3-(4-cyanophenyl)imidazo[1,2-b]pyridazin-6-yl)benzoyl)piperidin-4-yl)acetamide], which IC50 is on record?
**A.** < 1 µM

**Q.** `CC1(N)CCN(C(=O)c2ccc(-c3ccc4ncc(-c5ccc(C#N)cc5)n4n3)cc2)CC1` [Example 58, 4-(6-(4-(4-amino-4-methylpiperidine-1-carbonyl)phenyl)imidazo[1,2-b]pyridazin-3-yl)benzonitrile] was tested. Which IC50 did it give?
**A.** < 1 µM

**Q.** `CC(C)N1CCN(C(=O)c2ccc(-c3ccc4ncc(-c5ccc(C#N)cc5)n4n3)cc2)CC1` [Example 59, 4-(6-(4-(4-isopropylpiperazine-1-carbonyl)phenyl)imidazo [1,2-b]pyridazin-3-yl)benzonitrile] was tested. Which IC50 did it give?
**A.** < 1 µM

**Q.** Which IC50 does the source give for `CNC1CCN(C(=O)c2ccc(-c3ccc4ncc(-c5ccc(C#N)cc5)n4n3)cc2)CC1` [Example 60, 4-(6-(4-(4-(methylamino)piperidine-1-carbonyl)phenyl)imidazo[1,2-b]pyridazin-3-yl)benzonitrile] here?
**A.** < 1 µM

**Q.** With `CN(C)C1CCN(C(=O)c2ccc(-c3ccc4ncc(-c5ccc(C#N)cc5)n4n3)cc2)CC1` [Example 63] as the compound, how does the IC50 read?
**A.** < 1 µM

**Q.** With `N#Cc1ccc(-c2cnc3ccc(-c4ccc(C(=O)N5CCCOCC5)cc4)nn23)cc1` [Example 64, 4-(6-(4-(1,4-oxazepane-4-carbonyl)phenyl)imidazo[1,2-b]pyridazin-3-yl)benzonitrile] as the compound, how does the IC50 read?
**A.** < 1 µM

**Q.** How did the IC50 turn out when `N#Cc1ccc(-c2cnc3ccc(-c4ccc(C(=O)N5CCNCC5)cc4)nn23)cc1` [Example 65, 4-(6-(4-(piperazine-1-carbonyl)phenyl)imidazo [1,2-b]pyridazin-3-yl)benzonitrile] was run?
**A.** < 1 µM

**Q.** For `CCC1(NC(C)=O)CCN(C(=O)c2ccc(-c3ccc4ncc(-c5ccc(C#N)cc5)n4n3)cc2)CC1` [Example 66, N-(1-(4-(3-(4-cyanophenyl)imidazo[1,2-b]pyridazin-6-yl)benzoyl)-4-ethylpiperidin-4-yl)acetamide], which IC50 is on record?
**A.** < 1 µM

**Q.** For `N#Cc1ccc(-c2cnc3ccc(-c4ccc(C(=O)N5CCNC(=O)C5)cc4)nn23)cc1` [Example 68, 4-(6-(4-(3-oxopiperazine-1-carbonyl)phenyl)imidazo [1,2-b]pyridazin-3-yl)benzonitrile], which IC50 is on record?
**A.** < 1 µM

**Q.** Which IC50 does the source give for `CN1CCN(C(=O)c2ccc(-c3ccc4ncc(-c5ccc(C#N)cc5)n4n3)cc2)CC1=O` [Example 69, 4-(6-(4-(4-methyl-3-oxopiperazine-1-carbonyl)phenyl)imidazo[1,2-b]pyridazin-3-yl)benzonitrile] here?
**A.** < 1 µM

**Q.** How did the IC50 turn out when `CN1CCN(C2CCN(C(=O)c3ccc(-c4ccc5ncc(-c6ccc(C#N)cc6)n5n4)cc3)CC2)CC1` [Example 70, 4-(6-(4-(4-(4-methylpiperazin-1-yl)piperidine-1-carbonyl)phenyl)imidazo [1,2-b]pyridazin-3-yl)benzonitrile] was run?
**A.** < 1 µM

**Q.** For `N#Cc1ccc(-c2cnc3ccc(-c4ccc(C(=O)N5CCC6(CCCCN6)CC5)cc4)nn23)cc1` [Example 71, 4-(6-(4-(1,9-diazaspiro[5.5]undecane-9-carbonyl)phenyl)imidazo [1,2-b]pyridazin-3-yl)benzonitrile], which IC50 is on record?
**A.** < 1 µM

**Q.** Which IC50 does the source give for `CN1CCN(C(=O)c2ccc(-c3ccc4ncc(-c5ccc(C#N)cc5)n4n3)cc2Cl)CC1` [Example 72, 4-(6-(3-chloro-4-(4-methylpiperazine-1-carbonyl)phenyl)imidazo[1,2-b]pyridazin-3-yl)benzonitrile] here?
**A.** < 1 µM

**Q.** How did the IC50 turn out when `CN1CCN(C(=O)c2ccc(-c3ccc4ncc(-c5ccc(C#N)cc5)n4n3)cc2F)CC1` [Example 73, 4-(6-(3-fluoro-4-(4-methylpiperazine-1-carbonyl)phenyl)imidazo[1,2-b]pyridazin-3-yl)benzonitrile] was run?
**A.** < 1 µM

**Q.** How did the IC50 turn out when `Cc1cc(-c2ccc3ncc(-c4ccc(C#N)cc4)n3n2)ccc1C(=O)N1CCN(C)CC1` [Example 74, 4-(6-(3-methyl-4-(4-methylpiperazine-1-carbonyl)phenyl)imidazo[1,2-b]pyridazin-3-yl)benzonitrile] was run?
**A.** < 1 µM

**Q.** With `COc1cc(C(=O)N2CCN(C)CC2)ccc1-c1ccc2ncc(-c3ccc(C#N)cc3)n2n1` [Example 78, 4-(6-(2-methoxy-4-(4-methylpiperazine-1-carbonyl)phenyl)imidazo[1,2-b]pyridazin-3-yl)benzonitrile] as the compound, how does the IC50 read?
**A.** < 1 µM

**Q.** For `CN1CCN(C(=O)c2ccc(-c3ccc4ncc(-c5ccc(C#N)cc5)n4n3)cc2[N+](=O)[O-])CC1` [Example 79, 4-(6-(4-(4-methylpiperazine-1-carbonyl)-3-nitrophenyl)imidazo[1,2-b]pyridazin-3-yl)benzonitrile], which IC50 is on record?
**A.** < 1 µM

**Q.** With `CC(=O)Nc1cc(-c2ccc3ncc(-c4ccc(C#N)cc4)n3n2)ccc1C(=O)N1CCC(N(C)C)CC1` [Example 81, N-(5-(3-(4-cyanophenyl)imidazo[1,2-b]pyridazin-6-yl)-2-(4-(dimethylamino)piperidine-1-carbonyl)phenyl)acetamide] as the compound, how does the IC50 read?
**A.** < 1 µM

**Q.** Which IC50 does the source give for `CN1CCN(C(=O)c2ccc(-c3ccc4ncc(-c5ccc6c(c5)CC(=O)N6)n4n3)cc2)CC1` [Example 85, 5-(6-(4-(4-methylpiperazine-1-carbonyl)phenyl)imidazo [1,2-b]pyridazin-3-yl)indolin-2-one] here?
**A.** < 1 µM

**Q.** Which IC50 does the source give for `CN1CCN(C(=O)c2ccc(-c3ccc4ncc(-c5ccc6[nH]ncc6c5)n4n3)cc2)CC1` [Example 86, (4-(3-(1H-indazol-5-yl)imidazo[1,2-b]pyridazin-6-yl)phenyl)(4-methylpiperazin-1-yl)methanone] here?
**A.** < 1 µM
